Measurements from PubChem BioAssay (NCI).
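Where inhibition never reached the appropriate level, the endpoint shown equals the highest concentration tested. Otherwise, values were interpolated linearly from a five-concentration, 48-hour dose response in 96-well plates. At the TGI there is no net growth.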

Key:
Test in all cases: NCI anticancer screen, dose series, 48 h
CAKI-1 renal = test system: CAKI-1 renal
SK-OV-3 ovarian = test system: SK-OV-3 ovarian
OVCAR-4 ovarian = test system: OVCAR-4 ovarian
MDA-N = test system: MDA-N
OVCAR-8 ovarian = test system: OVCAR-8 ovarian
HT29 colon = test system: HT29 colon
NCI/ADR-RES ovarian = test system: NCI/ADR-RES ovarian
OVCAR-5 ovarian = test system: OVCAR-5 ovarian
SNB-75 CNS = test system: SNB-75 CNS
NCI-H460 lung = test system: NCI-H460 lung
EKVX NSCLC = test system: EKVX NSCLC
SW-620 colon = test system: SW-620 colon
M14 melanoma = test system: M14 melanoma
OVCAR-3 ovarian = test system: OVCAR-3 ovarian
MDA-MB-231 breast = test system: MDA-MB-231 breast
HCT-116 colon = test system: HCT-116 colon
PC-3 prostate = test system: PC-3 prostate
HCC-2998 colon = test system: HCC-2998 colon
SR leukemia = test system: SR leukemia
HL-60(TB) leukemia = test system: HL-60(TB) leukemia

Structure (SMILES) | TGI (CAKI-1 renal) | TGI (SK-OV-3 ovarian) | TGI (OVCAR-4 ovarian) | TGI (MDA-N) | TGI (OVCAR-8 ovarian) | TGI (HT29 colon) | TGI (NCI/ADR-RES ovarian) | TGI (OVCAR-5 ovarian) | TGI (SNB-75 CNS) | TGI (NCI-H460 lung) | TGI (EKVX NSCLC) | TGI (SW-620 colon) | TGI (M14 melanoma) | TGI (OVCAR-3 ovarian) | TGI (MDA-MB-231 breast) | TGI (HCT-116 colon) | TGI (PC-3 prostate) | TGI (HCC-2998 colon) | TGI (SR leukemia) | TGI (HL-60(TB) leukemia)
CC(C)NCCC(O)c1cc2ccccc2o1 (configuration not stated) | > 100 µM | > 100 µM | > 100 µM | > 100 µM | > 100 µM | > 100 µM | > 100 µM | > 100 µM | > 100 µM | > 100 µM | > 100 µM | > 100 µM | > 100 µM | > 100 µM | > 100 µM | > 100 µM | > 100 µM |  |  | 
O=C1/C(=C/c2ccc(Cl)cc2)N=C(c2ccccc2)N1c1ccc(S(=O)(=O)Nc2nccs2)cc1 | > 100 µM | > 100 µM | > 100 µM | > 100 µM |  | 56.3 µM | > 100 µM | > 100 µM | > 100 µM | > 100 µM | > 100 µM | > 100 µM | > 100 µM | > 100 µM | 55.9 µM | > 100 µM | > 100 µM | 47.4 µM | > 100 µM | 75.6 µM
NC(CCOCCP(=O)(O)CCOCCC(N)C(=O)O)C(=O)O (configuration not stated) | > 100 µM | > 100 µM | > 100 µM |  | > 100 µM | > 100 µM | > 100 µM | > 100 µM | > 100 µM | > 100 µM | > 100 µM | > 100 µM | > 100 µM | > 100 µM | > 100 µM | > 100 µM |  | > 100 µM | > 100 µM | > 100 µM
COc1cccc(CC2Cc3ccccc3CC(=O)N2)c1 (configuration not stated) | 68.6 µM | > 100 µM | > 100 µM | > 100 µM | > 100 µM | > 100 µM | > 100 µM | > 100 µM | > 100 µM | 72.8 µM | > 100 µM | > 100 µM | 93.3 µM | > 100 µM | 79.2 µM | > 100 µM | > 100 µM | > 100 µM | > 100 µM | > 100 µM
C=CCOC(=O)[C@@H]1C[C@@H](OC(C)(C)C)CN1C(=O)[C@@H]1[C@H]2OC(C)(C)O[C@H]2CN1C(=O)OCC1c2ccccc2-c2ccccc21 | 16.9 µM | 31.6 µM | 34.1 µM | 33.4 µM | 15.3 µM | 33.1 µM | 9.87 µM | 32.9 µM | 33.9 µM | 23.6 µM | 10.6 µM | 43.4 µM | 36 µM | 35.2 µM | 33.1 µM | 31.8 µM | 30.8 µM | 30.7 µM | 31.7 µM | 29.1 µM
OC1CN2Cc3cc4c(cc3[C@]13C=C[C@@H](O)CC23)OCO4 (some centres not stated) | > 100 µM | > 100 µM | > 100 µM | > 100 µM | > 100 µM | > 100 µM | > 100 µM | > 100 µM |  | 45.6 µM | 94.5 µM | > 100 µM | > 100 µM | > 100 µM | > 100 µM | > 100 µM | > 100 µM |  | > 100 µM | 75.3 µM
CC(C)C1OC(/C=C/c2ccccc2)OCC1(C)C (configuration not stated) | > 100 µM | > 100 µM | > 100 µM | > 100 µM | > 100 µM | > 100 µM | > 100 µM | > 100 µM | 78.6 µM | 39.9 µM | 82.3 µM | > 100 µM | > 100 µM | 44.9 µM | 94.7 µM | 92 µM | > 100 µM | 38.5 µM | > 100 µM | 38.3 µM
c1ccc(-c2nnc(-c3nsc4ccccc34)o2)cc1 |  |  | > 100 µM |  | > 100 µM | > 100 µM |  | > 100 µM | 19.7 µM |  | > 100 µM | > 100 µM | > 100 µM | > 100 µM |  | > 100 µM |  | > 100 µM |  | > 100 µM
CCOC(=O)C1=C(C)N(NC(N)=O)C2(O)CCCC(=O)C12C (configuration not stated) | > 100 µM | > 100 µM | > 100 µM |  | > 100 µM | > 100 µM |  | > 100 µM | > 100 µM |  |  | > 100 µM | > 100 µM | > 100 µM |  |  |  | > 100 µM |  | 
COc1ccc(Cc2nccc3cc(OC)c(OC)cc23)cc1OC | > 100 µM | > 100 µM | > 100 µM | > 100 µM | > 100 µM | > 100 µM | > 100 µM | > 100 µM | > 100 µM | > 100 µM | > 100 µM | > 100 µM | > 100 µM | > 100 µM | > 100 µM | > 100 µM | > 100 µM | > 100 µM | > 100 µM | > 100 µM
CCCCC(=O)Oc1ccc2c(C)cc(=O)oc2c1 | > 100 µM |  | > 100 µM | > 100 µM | > 100 µM | > 100 µM | > 100 µM | > 100 µM | > 100 µM | > 100 µM | > 100 µM | > 100 µM | > 100 µM | > 100 µM | > 100 µM | > 100 µM | > 100 µM | > 100 µM | > 100 µM | > 100 µM
O=C(O)c1oc(C(=O)O)c(C(=O)O)c1C(=O)O | > 100 µM |  | > 100 µM | > 100 µM | > 100 µM | > 100 µM | > 100 µM | > 100 µM |  | > 100 µM | > 100 µM | > 100 µM | > 100 µM | > 100 µM | > 100 µM | > 100 µM | > 100 µM |  | > 100 µM | > 100 µM
c1ccc(C[n+]2cccc(-c3cc4ccccc4[nH]3)c2)cc1 | > 100 µM | > 100 µM | > 100 µM | 37.6 µM | > 100 µM | > 100 µM | > 100 µM | > 100 µM | > 100 µM | > 100 µM | > 100 µM | > 100 µM | 55.2 µM | > 100 µM | > 100 µM | > 100 µM | > 100 µM |  | > 100 µM | 40.5 µM
N=C(N)SCc1cccc2c(=O)cc(-c3ccccc3)oc12 | 11.3 µM | 30.5 µM | 31.2 µM | 21.3 µM | 29.8 µM | 24.8 µM | > 100 µM | 41.8 µM | 19.4 µM | 22.9 µM | 37.9 µM | > 39.3 µM | 27.5 µM | 23.1 µM | 21.4 µM | 19.7 µM | 17.3 µM | 27.1 µM | > 100 µM | 13.1 µM
O=C1OCc2cccc3c2-c2c1cccc2C(=O)OC3 | > 100 µM | > 100 µM | > 100 µM |  | > 100 µM | > 100 µM |  |  |  |  | > 100 µM |  | > 100 µM | > 100 µM |  | > 100 µM |  | > 100 µM | > 100 µM | > 100 µM
CCCCS(=O)(=O)Nc1ccc(Nc2c3ccccc3nc3ccccc23)c(OC)c1 | 10.1 µM | 16.9 µM | 18.8 µM |  | 13.3 µM | 6.37 µM | 22 µM | 26.6 µM | 7.69 µM | 5.79 µM | 14.4 µM | 14.2 µM |  | 16.3 µM |  | 8.11 µM |  | 16.7 µM |  | 
NC(Cc1ccccc1)(C(=O)O)C(=O)O | > 100 µM | > 100 µM | > 100 µM | > 100 µM | > 100 µM | > 100 µM | > 100 µM | > 100 µM |  | > 100 µM | > 100 µM | > 100 µM | > 100 µM | > 100 µM | > 100 µM | > 100 µM | > 100 µM | > 100 µM |  | 
O=C(O)C12CCCC(CCC1)C2 | > 100 µM | > 100 µM | > 100 µM |  | > 100 µM | > 100 µM |  | > 100 µM | > 100 µM | > 100 µM | > 100 µM | > 100 µM | > 100 µM | > 100 µM |  | > 100 µM |  |  |  | > 100 µM
